One compound from US7091038B2, “Ecdysone receptor-based inducible gene expression system” (RheoGene, Inc., priority 2000, dated 2006) can be followed below.

The test system of series [1] is GAL4USP + VP16CfEcR. Description: Transactivation of reporter gene through switch 1.5 in CHO cells. The conditions noted are these: switch 1.5, pGAL4RELuc. In kind it is cell-based, Choristoneura fumiferana. The method, then: (§1) This construct was prepared in the same way as switch 1.3 except MmRXRDEF was replaced with CfUSPDEF (SEQ ID NO: 67).
(§2) The cells were harvested and reporter activity was assayed.
(§3) Cells were harvested 24–48 hr after adding ligands. […] Twenty μl of lysate was assayed.

Series [2] concerns VP16CfEcR. The series can be described thus: Transactivation of reporter gene through switch 1.7 in CHO cells. It counts as cell-based, Choristoneura fumiferana. The note with it: switch 1.7, pEcRELuc. Here is the method: (§4) Six ecdysone response elements (“EcRE”; SEQ ID NO: 55) from the hsp27 gene were placed upstream of the promoter and a luciferase gene (SEQ ID NO: 66). This switch most probably uses endogenous RXR.
as §2, §3
On the technique in general: A reporter such as luciferase makes a cellular process visible.

Series [3] deals with CfVgRXR + MmRXR. The series can be described thus: Transactivation of reporter gene through switch 1.9 in CHO cells. In kind it is cell-based, Choristoneura fumiferana; Mus musculus. The conditions noted are these: switch 1.9, pIND(SP1)LacZ. Here is the method: (§5) This example was prepared in the same way as switch 1.8 except DmEcR was replaced with a truncated CfEcR comprising a partial A/B domain and the complete CDEF domains [SEQ ID NO: 70 (polynucleotide) and SEQ ID NO: 71 (polypeptide)].
as §2, §3

Series [4] deals with GAL4EcR + VP16USP. Description: Transactivation of reporter gene through switch 1.2 in 3T3 cells. In kind it is cell-based, Choristoneura fumiferana. The note with it: switch 1.2, pGAL4RELuc. Here is the method:
(§6) This construct was prepared in the same way as in switch 1.1 above except MmRXRDEF was replaced with the D, E and F domains from spruce budworm USP (“CfUSPDEF”; SEQ ID NO: 67). The constructs used in this example are similar to those disclosed in U.S. Pat. No. 5,880,333 except that Choristoneura fumiferana USP rather than Drosophila melanogaster USP was utilized.
as §2
(§7) The cells were plated when they reached 50% confluency.
as §3

The test system of series [5] is GAL4RXR + VP16CfEcR. Description: Transactivation of reporter gene through switch 1.3 in 3T3 cells. From the text: In various cellular backgrounds, including mammalian cells, insect ecdysone receptor (EcR) heterodimerizes with retinoid X receptor (RXR) and, upon binding of ligand, transactivates genes under the control of ecdysone response elements. […] The prepared receptor constructs comprise a ligand binding domain of EcR and of RXR or of USP; a DNA binding domain of GAL4 or of EcR; and an activation domain of VP16. The reporter constructs include a reporter gene, luciferase or LacZ, operably linked to a synthetic promoter construct that comprises either GAL4 or EcR/USP binding sites (response elements). Various combinations of these receptor and reporter constructs were cotransfected into CHO, NIH3T3, CV1 and 293 cells.
The same procedures described for CHO cells were followed for 3T3 cells as well with two modifications. The cells were plated when they reached 50% confluency. 125,000 or 50,000 or 25,000 cells were plated per well of 6- or 12- or 24-well plates respectively. […] The ligand treatments were performed as described in the CHO cell section above.

For a further series, the target named is DmVgRXR + MmRXR (Drosophila melanogaster, UniProt P34021, E282G/G283S/G286V). Description: Transactivation of reporter gene through switch 1.8 in 3T3 cells. The conditions noted are these: switch 1.8, pIND(SP1)LacZ. It counts as cell-based, Drosophila melanogaster; Mus musculus.
Series [6] relates to CfVgRXR. The series can be described thus: Transactivation of reporter gene through switch 1.10 in 3T3 cells. In kind it is cell-based, Choristoneura fumiferana. The note with it: switch 1.10, pIND(SP1)LacZ. Here is the method: (§8) This example was prepared in the same way as switch 1.9 except MmRXR (SEQ ID NO: 62) was deleted.
as §2, §7, §3

Series [7] deals with GAL4EcR + VP16USP. Description: Transactivation of reporter gene through switch 1.2 in 293 cells. It counts as cell-based, Choristoneura fumiferana. The note with it: switch 1.2, pGAL4RELuc. The method, then: as §6, §2
(§9) The same procedures described for CHO were followed for 293 cells except that the cells were plated in biocoated plates to avoid clumping.
as §3

For series [8], the system named is GAL4RXR + VP16CfEcR. The series can be described thus: Transactivation of reporter gene through switch 1.3 in 293 cells. It counts as cell-based, Mus musculus; Choristoneura fumiferana. The note with it: switch 1.3, pGAL4RELuc. The method, then:
as §2, §9, §3

The test system of series [9] is GAL4USP + VP16CfEcR. The series can be described thus: Transactivation of reporter gene through switch 1.5 in 293 cells. In kind it is cell-based, Choristoneura fumiferana. The note with it: switch 1.5, pGAL4RELuc. The method, then: as §1, §2, §9, §3
The test system of series [10] is GAL4CfEcRVP16. Description: Transactivation of reporter gene through switch 1.6 in 293 cells. In kind it is cell-based, Choristoneura fumiferana. The note with it: switch 1.6, pGAL4RELuc. The method, then:
(§10) This construct was prepared so that both the GAL4 DNABD and the VP16AD were placed on the same molecule. GAL4DNABD (SEQ ID NO: 43) and VP16AD (SEQ ID NO: 49) were fused to CfEcRDEF (SEQ ID NO: 3) at N-and C-termini respectively.
as §2, §9, §3

For series [11], the system named is CfVgRXR + MmRXR. The series can be described thus: Transactivation of reporter gene through switch 1.9 in 293 cells. It counts as cell-based, Choristoneura fumiferana; Mus musculus. The conditions noted are these: switch 1.9, pIND(SP1)LacZ. The method, then:
as §5, §2, §9, §3

Series [12] has as its system CfVgRXR. Description: Transactivation of reporter gene through switch 1.10 in 293 cells. The note with it: switch 1.10, pIND(SP1)LacZ. It counts as cell-based, Choristoneura fumiferana. The method, then: as §8, §2, §9, §3
Series [13] deals with GAL4EcR + VP16USP. The series can be described thus: Transactivation of reporter gene through switch 1.2 in CV1 cells. In kind it is cell-based, Choristoneura fumiferana. The conditions noted are these: switch 1.2, pGAL4RELuc. The method, then: as §6, §2, §7
(§11) The same procedures described for NIH3T3 cells were followed for CV1 cells
as §3

The subject of series [14] is GAL4RXR + VP16CfEcR. Description: Transactivation of reporter gene through switch 1.3 in CV1 cells. It counts as cell-based, Mus musculus; Choristoneura fumiferana. The note with it: switch 1.3, pGAL4RELuc. The method, then: as §2, §7, §11, §3
For series [15], the system named is GAL4CfEcRVP16. Description: Transactivation of reporter gene through switch 1.6 in CV1 cells. It counts as cell-based, Choristoneura fumiferana. The note with it: switch 1.6, pGAL4RELuc. Here is the method: as §10, §2, §7, §11, §3
In series [16] the test system is VP16CfEcR. The series can be described thus: Transactivation of reporter gene through switch 1.7 in CV1 cells. In kind it is cell-based, Choristoneura fumiferana. The conditions noted are these: switch 1.7, pEcRELuc. Here is the method:
as §4, §2, §7, §11, §3

For series [17], the system named is CfVgRXR + MmRXR. Description: Transactivation of reporter gene through switch 1.9 in CV1 cells. The note with it: switch 1.9, pIND(SP1)LacZ. In kind it is cell-based, Choristoneura fumiferana; Mus musculus. Here is the method: as §5, §2, §7, §11, §3
A further series relates to CfEcR. Description: Transactivation through CfEcR- versus DmEcR-based switches in mammalian cell lines (Tables 1–4). On the set-up: species or system Choristoneura fumiferana. Here is the method: as §3

Molecules are shown by their SMILES.

Chain of DmVgRXR + MmRXR (P28700 whole entry): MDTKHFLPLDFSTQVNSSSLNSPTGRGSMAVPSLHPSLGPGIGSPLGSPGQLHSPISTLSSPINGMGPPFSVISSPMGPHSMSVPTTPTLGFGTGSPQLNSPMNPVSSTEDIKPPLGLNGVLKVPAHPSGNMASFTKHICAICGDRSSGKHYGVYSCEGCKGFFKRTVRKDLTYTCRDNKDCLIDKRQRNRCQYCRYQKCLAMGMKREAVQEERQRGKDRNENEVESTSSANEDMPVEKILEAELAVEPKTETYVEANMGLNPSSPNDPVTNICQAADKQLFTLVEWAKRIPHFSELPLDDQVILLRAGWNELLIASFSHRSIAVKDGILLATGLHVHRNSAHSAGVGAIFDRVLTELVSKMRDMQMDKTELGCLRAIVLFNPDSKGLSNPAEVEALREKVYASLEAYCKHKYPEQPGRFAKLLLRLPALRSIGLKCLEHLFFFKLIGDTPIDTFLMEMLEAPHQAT
Chain of DmVgRXR + MmRXR (P34021 whole entry E282G/G283S/G286V): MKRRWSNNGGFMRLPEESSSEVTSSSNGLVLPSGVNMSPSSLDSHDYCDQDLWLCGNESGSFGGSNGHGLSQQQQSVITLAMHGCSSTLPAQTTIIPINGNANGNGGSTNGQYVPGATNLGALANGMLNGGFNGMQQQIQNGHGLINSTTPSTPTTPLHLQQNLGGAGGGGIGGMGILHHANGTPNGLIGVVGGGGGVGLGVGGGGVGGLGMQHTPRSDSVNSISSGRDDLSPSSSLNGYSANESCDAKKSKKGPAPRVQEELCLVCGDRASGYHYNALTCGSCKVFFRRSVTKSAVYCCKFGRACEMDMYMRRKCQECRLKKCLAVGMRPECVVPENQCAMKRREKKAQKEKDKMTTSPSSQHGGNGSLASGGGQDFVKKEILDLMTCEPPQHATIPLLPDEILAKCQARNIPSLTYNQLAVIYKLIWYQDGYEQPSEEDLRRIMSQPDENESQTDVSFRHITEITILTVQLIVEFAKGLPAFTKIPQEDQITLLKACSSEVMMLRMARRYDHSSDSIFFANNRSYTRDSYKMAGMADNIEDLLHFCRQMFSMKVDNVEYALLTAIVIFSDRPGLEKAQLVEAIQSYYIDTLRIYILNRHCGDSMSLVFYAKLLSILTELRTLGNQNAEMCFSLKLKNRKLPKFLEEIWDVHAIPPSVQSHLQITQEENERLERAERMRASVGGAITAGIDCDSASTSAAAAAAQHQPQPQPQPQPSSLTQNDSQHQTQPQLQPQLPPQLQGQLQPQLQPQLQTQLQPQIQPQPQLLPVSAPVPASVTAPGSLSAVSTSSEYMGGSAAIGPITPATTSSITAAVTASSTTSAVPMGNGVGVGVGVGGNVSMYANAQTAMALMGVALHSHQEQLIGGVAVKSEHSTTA

In the case of `CCc1c(OC)cccc1C(=O)NN(C(=O)c1cc(C)cc(C)c1)C(C)(C)C` [N-(2-ethyl-3-methoxybenzoyl)-N′-(3,5-dimethylbenzoyl)-N′-t-butylhydrazine], the “Mean Fold Activation with 50 μM N-(2-ethyl-3-methoxybenzoyl)-N′-(3,5-dimethylbenzoyl)-N′-t-butylhydrazine” value in the series on GAL4USP + VP16CfEcR [1] came to 2 fold; with VP16CfEcR [2], 36 fold; in the series on CfVgRXR + MmRXR [3], 27 fold. In addition, the “Mean Fold Activation Through N-(2-ethyl-3-methoxybenzoyl)-N′-(3,5-dimethylbenzoyl)-N′-t-butylhydrazine” value in the series with GAL4EcR + VP16USP [4] is given as 2 fold; in the series with GAL4RXR + VP16CfEcR [5] (switch 1.3, pGAL4RELuc) it was 47 fold; on DmVgRXR + MmRXR it was 21 fold; in the series with CfVgRXR [6] it was 2 fold; with GAL4EcR + VP16USP [7] it was 2 fold; in the series on GAL4RXR + VP16CfEcR [8] it was 17 fold. Further, the “Mean Fold Activation Through N-(2-ethyl-3-methoxybenzoyl)-N′-(3,5-dimethylbenzoyl)-N′-t-butylhydrazine” value with GAL4USP + VP16CfEcR [9] is given as 2 fold; in the series with GAL4CfEcRVP16 [10] it was 3 fold; in the series on CfVgRXR + MmRXR [11], 12 fold; in the series on CfVgRXR [12], 3 fold; in the series with GAL4EcR + VP16USP [13] it was 2 fold; in the series on GAL4RXR + VP16CfEcR [14], 25 fold. Besides, the “Mean Fold Activation Through N-(2-ethyl-3-methoxybenzoyl)-N′-(3,5-dimethylbenzoyl)-N′-t-butylhydrazine” value is 6 fold in the series with GAL4CfEcRVP16 [15], 1 fold in the series on VP16CfEcR [16] and 7 fold in the series with CfVgRXR + MmRXR [17]. Moreover, the “Mean Fold Induction at 1.0 μM Concentration” value in the series with GAL4RXR + VP16CfEcR [5] (GAL4MmRXRDEF/VP16CfEcRCDEF (switch 1.3), 1.0 μM ligand) amounted to 71 fold. For the same compound, the “Potency as activator of CfEcR compared to DmEcR” value with CfEcR is reported as “more potent activators of CfEcR as compared to Drosophila melanogaster EcR (DmEcR)”.
